Experimental data taken from patent US20170210723A1, “MOLECULES HAVING PESTICIDAL UTILITY, AND INTERMEDIATES, COMPOSITIONS, AND PROCESSES, RELATED THERETO” (priority 2016, published 2017).

Experiments:
Format in all cases: in vivo
[1] = system: Beet Armyworm (Spodoptera exigua); experiment: Bioassays on BAW, 128-well diet tray assay; conditions: Spodoptera exigua; for mortality at 50 µg/cm2: 168 h, 50 μg/cm^2 on artificial diet, second instar larvae, five to seven days, read-out: BAW % Control (or Mortality) rating; for mortality at 0.05 µg/cm2: 0.05 μg/cm^2; for mortality at 0.05 µg/cm2 / mortality at 0.5 µg/cm2 / mortality at 5 µg/cm2: read-out: BAW Percent control (or mortality); for mortality at 0.5 µg/cm2: 0.5 μg/cm^2; for mortality at 5 µg/cm2: 5 μg/cm^2
[2] = system: Cabbage Looper (Trichoplusia ni); experiment: Bioassays on CL, 128-well diet tray assay; conditions: Trichoplusia ni; for mortality at 50 µg/cm2: 168 h, 50 μg/cm^2 on artificial diet, second instar larvae, five to seven days, read-out: CL % Control (or Mortality) rating; for mortality at 0.05 µg/cm2: 0.05 μg/cm^2; for mortality at 0.05 µg/cm2 / mortality at 0.5 µg/cm2 / mortality at 5 µg/cm2: read-out: CL Percent control (or mortality); for mortality at 0.5 µg/cm2: 0.5 μg/cm^2; for mortality at 5 µg/cm2: 5 μg/cm^2
Procedure, shortened: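 Test molecule at 50 μg/cm^2 applied to the artificial diet surface (acetone-water) and dried; one to five second-instar T. ni larvae per well, eight wells per treatment, held at 25° C., 14:10 light-dark for five to seven days. Percent mortality averaged over wells.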

[3] = system: Green Peach Aphid (Myzus persicae); experiment: Bioassays on Green Peach Aphid, foliar spray on cabbage seedlings; conditions: 72 h, 200 ppm spray on cabbage seedlings, three days, Abbott corrected % control, read-out: GPA % Control (or Mortality) rating
Method: Cabbage seedlings grown in 3-inch pots, with 2-3 small (3-5 cm) true leaves, were used as test substrate. The seedlings were infested with 20-50 GPA (wingless adult and nymph stages) one day prior to chemical application. Four pots with individual seedlings were used for each treatment. Test molecules (2 mg) were dissolved in 2 mL of acetone/methanol (1:1) solvent, forming stock solutions of 1000 ppm test molecule. The stock solutions were diluted 5× with 0.025% Tween 20 in water to obtain the solution at 200 ppm test molecule. A hand-held aspirator-type sprayer was used for spraying a solution to both sides of […] leaves until runoff. Reference plants (solvent check) were sprayed with the diluent only containing 20% by volume of acetone/methanol (1:1) solvent. Treated plants were held in a holding room for three days at approximately 25° C. and ambient relative humidity (RH) prior to grading. Evaluation was conducted by counting the number of live aphids per plant under a microscope. Percent Control was measured by using Abbott's correction formula (W. S. Abbott, “A Method of Computing the Effectiveness of an Insecticide” J. Econ. Entomol. 18 (1925), pp. 265-267) as follows.
Corrected % Control=100*(X−Y)/X • where • X=No. of live aphids on solvent check plants and • Y=No. of live aphids on treated plants

[4] = system: Yellow Fever Mosquito (Aedes aegypti); experiment: Bioassays on Yellow Fever Mosquito larvae, 96-well plate; conditions: from 4000 ppm DMSO master plate, about 1 day-old larvae, 3 days
Procedure, shortened: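 Aedes aegypti larvae about 1 day old, in water with liver powder, exposed in 96-well plates to compounds from a 4000 ppm DMSO master solution diluted in 90:10 water:acetone. Plates covered and held at room temperature for 3 days, then each well scored for mortality; 6 replicate plates.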

Row | Compound | mortality at 50 µg/cm2 [1] [%] | mortality at 50 µg/cm2 [2] [%] | mortality at 200 ppm [3] [%] | YFM % Control (or Mortality) rating [4] | mortality at 0.05 µg/cm2 [1] [%] | mortality at 0.5 µg/cm2 [1] [%] | mortality at 5 µg/cm2 [1] [%] | mortality at 0.05 µg/cm2 [2] [%] | mortality at 0.5 µg/cm2 [2] [%] | mortality at 5 µg/cm2 [2] [%]
1 | C[C@H](CSCCF)NC(=O)c1ccc(/C=C/C(c2cc(Cl)c(Cl)c(Cl)c2)C(C)(F)F)cc1C(F)(F)F (stereo partly drawn) [F119, 4-((E)-4,4-Difluoro-3-(3,4,5-trichlorophenyl)pent-1-en-1-yl)-N—((R)-1-((2-fluoroethyl)thio)propan-2-yl)-2-(trifluoromethyl)benzamide] | 50 to 100 | 50 to 100 | 0 to 80 | A (80-100) |  |  |  |  |  | 
2 | C[C@H](C[S+]([O-])CC(F)(F)F)NC(=O)c1ccc(/C=C/C(c2cc(Cl)c(F)c(Cl)c2)C(F)(F)F)cc1Br (stereo partly drawn) [F49, 2-Bromo-4-((E)-3-(3,5-dichloro-4-fluorophenyl)-4,4,4-trifluorobut-1-en-1-yl)-N-((2R)-1-((2,2,2-trifluoroethyl)sulfinyl)propan-2-yl)benzamide] | 50 to 100 | 50 to 100 | 0 | A (80-100) |  |  |  |  |  | 
3 | CS(=O)(=O)CC[C@@H](NC(=O)c1ccc(/C=C/C(c2cc(Cl)c(Cl)c(Cl)c2)C(F)(F)F)cc1C(F)(F)F)C(=O)NCC(F)(F)F (stereo partly drawn) [F26, N—((R)-4-(Methylsulfonyl)-1-oxo-1-((2,2,2-trifluoroethyl)amino)butan-2-yl)-4-((E)-4,4,4-trifluoro-3-(3,4,5-trichlorophenyl)but-1-en-1-yl)-2-(trifluoromethyl)benzamide] | 50 to 100 | 50 to 100 | 0 to 80 | B (More than 0-Less than 80) |  |  |  |  |  | 
4 | CCS(=O)(=O)C[C@@H](C)NC(=O)c1ccc(/C=C/C(c2cc(Cl)c(Cl)c(Cl)c2)C(F)(F)F)cc1C(F)(F)F (stereo partly drawn) [F68, N—((R)-1-(Ethylsulfonyl)propan-2-yl)-4-((E)-4,4,4-trifluoro-3-(3,4,5-trichlorophenyl)but-1-en-1-yl)-2-(trifluoromethyl)benzamide] | 50 to 100 | 50 to 100 | 0 to 80 | A (80-100) |  |  |  |  |  | 
5 | C[C@H](CSCC(F)(F)F)NC(=O)c1ccc(/C=C/C(c2cc(Cl)c(Cl)c(Cl)c2)C(F)(F)F)cc1Br (stereo partly drawn) [F38, 2-Bromo-4-((E)-4,4,4-trifluoro-3-(3,4,5-trichlorophenyl)but-1-en-1-yl)-N-((R)-1-((2,2,2-trifluoroethyl)thio)propan-2-yl)benzamide] | 50 to 100 | 50 to 100 | 0 to 80 | A (80-100) |  |  |  |  |  | 
6 | C[C@H](CS(=O)(=O)CC(F)(F)F)NC(=O)c1ccc(/C=C/C(c2cc(Br)c(Cl)c(Br)c2)C(F)(F)F)cc1C(F)(F)F (stereo partly drawn) [F59, 4-((E)-3-(3,5-Dibromo-4-chlorophenyl)-4,4,4-trifluorobut-1-en-1-yl)-N—((R)-1-((2,2,2-trifluoroethyl)sulfonyl)propan-2-yl)-2-(trifluoromethyl)benzamide] | 50 to 100 | 50 to 100 | 0 |  |  |  |  |  |  | 
7 | CS(=O)(=O)CC[C@@H](NC(=O)c1ccc(/C=C/C(c2cc(Cl)c(Cl)c(Cl)c2)C(F)(F)F)cc1Br)C(=O)NCC(F)(F)F (stereo partly drawn) [F25, 2-bromo-N—((R)-4-(methylsulfonyl)-1-oxo-1-((2,2,2-trifluoroethyl)amino)butan-2-yl)-4-((E)-4,4,4-trifluoro-3-(3,4,5-trichlorophenyl)but-1-en-1-yl)benzamide] | 50 to 100 | 50 to 100 | 0 to 80 | A (80-100) |  |  |  |  |  | 
8 | C[C@H](CSCC(F)(F)F)NC(=O)c1ccc(/C=C/C(c2cc(Cl)c(F)c(Cl)c2)C(F)(F)F)cc1C(F)(F)F (stereo partly drawn) [F35, 4-((E)-3-(3,5-Dichloro-4-fluorophenyl)-4,4,4-trifluorobut-1-en-1-yl)-N—((R)-1-((2,2,2-trifluoroethyl)thio)propan-2-yl)-2-(trifluoromethyl)benzamide] | 50 to 100 | 50 to 100 | 0 to 80 | A (80-100) |  |  |  |  |  | 
9 | C[C@H](CS(=O)(=O)CC(F)(F)F)NC(=O)c1ccc(/C=C/C(c2cc(Cl)c(Cl)c(Cl)c2)C(F)(F)F)cc1Cl (stereo partly drawn) [F58, 2-Chloro-4-((E)-4,4,4-trifluoro-3-(3,4,5-trichlorophenyl)but-1-en-1-yl)-N—((R)-1-((2,2,2-trifluoroethyl)sulfonyl)propan-2-yl)benzamide] | 50 to 100 | 50 to 100 | 0 | A (80-100) | 100 | 100 | 100 | 100 | 100 | 100
10 | C[C@H](CSCC(F)(F)F)NC(=O)c1ccc(/C=C/C(c2cc(Cl)c(Cl)c(Cl)c2)C(F)(F)F)cc1C(F)(F)F (stereo partly drawn) [F22, 4-((E)-4,4,4-trifluoro-3-(3,4,5-trichlorophenyl)but-1-en-1-yl)-N—((R)-1-((2,2,2-trifluoroethyl)thio)propan-2-yl)-2-(trifluoromethyl)benzamide] | 50 to 100 | 50 to 100 | 80 to 100 | A (80-100) |  |  |  |  |  | 
11 | C[C@H](CSCC(F)(F)F)NC(=O)c1ccc(/C=C/C(c2cc(Br)cc(Br)c2)C(F)(F)F)cc1C(F)(F)F (stereo partly drawn) [F56, 4-((E)-3-(3,5-Dibromophenyl)-4,4,4-trifluorobut-1-en-1-yl)-N—((R)-1-((2,2,2-trifluoroethyl)thio)propan-2-yl)-2-(trifluoromethyl)benzamide] | 50 to 100 | 50 to 100 | 0 | A (80-100) |  |  |  |  |  | 
12 | Cc1cc(/C=C/C(c2cc(Cl)c(Cl)c(Cl)c2)C(F)(F)F)ccc1C(=O)N[C@H](C)CS(=O)(=O)CC(F)(F)F (stereo partly drawn) [F40, 2-Methyl-4-((E)-4,4,4-trifluoro-3-(3,4,5-trichlorophenyl)but-1-en-1-yl)-N—((R)-1-((2,2,2-trifluoroethyl)sulfonyl)propan-2-yl)benzamide] | 50 to 100 | 50 to 100 |  | A (80-100) | 60 | 100 | 100 | 100 | 100 | 100
13 | C[C@H](CC[S+]([O-])CC(F)(F)F)NC(=O)c1ccc(/C=C/C(c2cc(Cl)c(Cl)c(Cl)c2)C(F)(F)F)cc1C(F)(F)F (stereo partly drawn) [F105, 4-((E)-4,4,4-Trifluoro-3-(3,4,5-trichlorophenyl)but-1-en-1-yl)-N-((2R)-4-((2,2,2-trifluoroethyl)sulfinyl)butan-2-yl)-2-(trifluoromethyl)benzamide] | 50 to 100 | 50 to 100 |  | A (80-100) |  |  |  |  |  | 
14 | CC(F)(F)C(/C=C/c1ccc(C(=O)NCCS(=O)(=O)CC(F)(F)F)c(C(F)(F)F)c1)c1cc(Cl)c(Cl)c(Cl)c1 (centres unmarked) [F126, (E)-4-(4,4-Difluoro-3-(3,4,5-trichlorophenyl)pent-1-en-1-yl)-N-(2-((2,2,2-trifluoroethyl)sulfonyl)ethyl)-2-(trifluoromethyl)benzamide] | 50 to 100 | 50 to 100 |  | B (More than 0-Less than 80) |  |  |  |  |  | 
15 | CCC[S+]([O-])C[C@@H](C)NC(=O)c1ccc(/C=C/C(c2cc(Cl)c(Cl)c(Cl)c2)C(F)(F)F)cc1C(F)(F)F (stereo partly drawn) [F111, N-((2R)-1-(Propylsulfinyl)propan-2-yl)-4-((E)-4,4,4-trifluoro-3-(3,4,5-trichlorophenyl)but-1-en-1-yl)-2-(trifluoromethyl)benzamide] | 50 to 100 | 50 to 100 | 0 to 80 | A (80-100) |  |  |  |  |  | 
